target: human GPR40 receptor (Homo sapiens, UniProt O14842); assay: IP1 accumulation measurements using the IPOne assay system in 1321N1 cells stably expressing human GPR40 receptor; format: cell-based; details: IP1 accumulation (HTRF), 1321N1 cells stably expressing human GPR40, 1 hour stimulation at 37° C.
Procedure: IP1 accumulation measurements using the IPOne assay system—1321N1 cells stably expressing human GPR40 receptor (Euroscreen, Belgium) are seeded 24 h before the assay in black clear-bottom collagen-coated or white 384-well plates in culture medium containing 10% FCS, 1% Na-Pyruvate and 400 μg/mL G418. IP1 is assayed according to the Manufacturer's description (Cisbio Bioassays, France). In brief, the assay is started by substitution of the culture medium by stimulation buffer (Hepes 10 mM, CaCl2 1 mM, MgCl2 0.5 mM, KCl 4.2 mM, NaCl 146 mM and glucose 5.5 mM, pH 7.4) without LiCl or with […]. Cells are stimulated for 1 hour at 37° C., 5 or 10% CO2 by addition of the compounds that are diluted in stimulation buffer containing LiCl yielding a final LiCl concentration of 50 mM. Assays are stopped by adding HTRF-conjugates (IP1-d2 and Anti-IP1 cryptate Tb) and lysis buffer, provided by the manufacturer. After an incubation time of 1 hour at room temperature plates are measured using an EnVision™, Perkin Elmer. The obtained fluorescence ratios at […] are then used to calculate the pEC50 values using GraphPad Prism 5 (Graphpad Software Inc, USA) or Assay Explorer 3.3 Software (Accelrys, Inc.) by interpolation using an IP1 reference curve and subsequent sigmoidal curve fitting allowing for a variable hill slope.

Chain of human GPR40 receptor (O14842 whole entry): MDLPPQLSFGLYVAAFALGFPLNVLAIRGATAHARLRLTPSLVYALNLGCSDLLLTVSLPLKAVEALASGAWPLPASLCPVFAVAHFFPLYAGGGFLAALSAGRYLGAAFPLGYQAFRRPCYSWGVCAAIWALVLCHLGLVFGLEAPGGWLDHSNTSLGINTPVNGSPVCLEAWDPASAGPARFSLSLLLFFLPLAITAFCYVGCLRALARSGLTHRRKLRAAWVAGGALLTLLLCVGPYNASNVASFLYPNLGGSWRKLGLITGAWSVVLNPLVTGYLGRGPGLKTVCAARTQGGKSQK

SMILES	EC50
Cc1cc(-c2nc(C)n(C)n2)cc(C)c1-c1ccc(F)c2c1CC[C@H]2Oc1ccc([C@H]2C[C@@H]2C(=O)O)cc1 [Example 42, (1S,2S)-2-(4-{(R)-4-[4-(1,5-Dimethyl-1H-[1,2,4]triazol-3-yl)-2,6-dimethyl-phenyl]-7-fluoro-indan-1-yloxy}-phenyl)-cyclopropanecarboxylic acid]	1 nM
Cc1cc(C(=O)NCC(C)(C)O)cc(C)c1-c1ccc(F)c2c1CC[C@H]2Oc1ccc([C@H]2C[C@@H]2C(=O)O)cc1 [Example 15, (1S,2S)-2-(4-{(R)-7-Fluoro-4-[4-(2-hydroxy-2-methyl-propylcarbamoyl)-2,6-dimethyl-phenyl]-indan-1-yloxy}-phenyl)-cyclopropanecarboxylic acid]	12 nM
Cc1cc(O[C@H]2CCN(S(C)(=O)=O)C2)cc(C)c1-c1ccc(F)c2c1CC[C@H]2Oc1ccc([C@H]2C[C@@H]2C(=O)O)cc1 [Example 24]	18 nM
Cc1cc(OC[C@@H](C)CS(C)(=O)=O)cc(C)c1-c1ccc(F)c2c1CC[C@H]2Oc1ccc([C@H]2C[C@@H]2C(=O)O)cc1 [Example 29, (1S,2S)-2-(4-{(R)-7-Fluoro-4-[4-((R)-3-methanesulfonyl-2-methyl-propoxy)-2,6-dimethyl-phenyl]-indan-1-yloxy}-phenyl)-cyclopropanecarboxylic acid]	7 nM
Cc1cc(OC[C@H](C)CS(C)(=O)=O)cc(C)c1-c1ccc(F)c2c1CC[C@H]2Oc1ccc([C@H]2C[C@@H]2C(=O)O)cc1 [Example 28, (1S,2S)-2-(4-{(R)-7-Fluoro-4-[4-((S)-3-methanesulfonyl-2-methyl-propoxy)-2,6-dimethyl-phenyl]-indan-1-yloxy}-phenyl)-cyclopropanecarboxylic acid]	6 nM
O=C(O)C1CC1c1ccc(O[C@@H]2CCc3cc(C(F)(F)F)ccc32)cc1 (stereo in doubt) [Example 3, 2-[4-((R)-5-Trifluoromethyl-indan-1-yloxy)-phenyl]-trans-cyclopropanecarboxylic acid]	36 nM
Cc1cc(OCC2(CO)CC2)cc(C)c1-c1ccc(F)c2c1CC[C@H]2Oc1ccc([C@H]2C[C@@H]2C(=O)O)cc1 [Example 32]	4 nM
Cn1ccc2cccc(-c3ccc(F)c4c3CC[C@H]4Oc3ccc([C@H]4C[C@@H]4C(=O)O)cc3)c21 [Example 60]	3 nM
Cn1ccc2c(-c3ccc(F)c4c3CC[C@H]4Oc3ccc([C@H]4C[C@@H]4C(=O)O)cc3)cccc21 [Example 53]	13 nM
O=C(O)[C@H]1C[C@@H]1c1ccc(O[C@@H]2CCc3c(-c4cccc5cnccc45)ccc(F)c32)cc1 [Example 49, (1S,2S)-2-(4-((1R)-7-fluoro-4-(isoquinolin-5-yl)-2,3-dihydro-1H-inden-1-yloxy)phenyl)cyclo-propanecarboxylic acid]	5 nM
Cn1ncc2c(-c3ccc(F)c4c3CC[C@H]4Oc3ccc([C@H]4C[C@@H]4C(=O)O)cc3)cccc21 [Example 59]	17 nM
Cc1nn(C)cc1-c1ccc(F)c2c1CC[C@H]2Oc1ccc([C@H]2C[C@@H]2C(=O)O)cc1 [Example 56, (1S,2S)-2-(4-((1R)-4-(1,3-dimethyl-1H-pyrazol-4-yl)-7-fluoro-2,3-dihydro-1H-inden-1-yloxy)phenyl)cyclopropanecarb oxylic acid]	224 nM
Cc1cc(OCCC(C)(C)O)cc(C)c1-c1c(C#N)ccc2c1CC[C@H]2Oc1ccc([C@H]2C[C@@H]2C(=O)O)cc1 [Example 34]	8 nM
O=C(O)C1CC1c1ccc(O[C@@H]2CCc3c(OC(F)(F)F)cccc32)cc1 (stereo in doubt) [Example 4, 2-[4-((R)-4-Trifluoromethoxy-indan-1-yloxy)-phenyl]-trans-cyclopropanecarboxylic acid]	18 nM
O=C(O)C1CC1c1ccc(O[C@@H]2CCc3c2cccc3C(F)(F)F)cc1F (stereo in doubt) [Example 5, 2-[4-((R)-4-Trifluoromethyl-indan-1-yloxy)-2-fluorophenyl]-trans-cyclopropanecarboxylic acid]	85 nM
N#Cc1sccc1-c1ccc(F)c2c1CC[C@H]2Oc1ccc([C@H]2C[C@@H]2C(=O)O)cc1 [Example 47]	191 nM
Cc1cc(OCCC(C)(C)O)cc(C)c1-c1ccc(F)c2c1CC[C@H]2Oc1ccc([C@H]2C[C@@H]2C(=O)O)cc1 [Example 17, (1S,2S)-2-(4-{(R)-7-Fluoro-4-[4-(3-hydroxy-3-methyl-butoxy)-2,6-dimethyl-phenyl]-indan-1-yloxy}-phenyl)-cyclopropanecarboxylic acid]	4 nM

SMILES	EC50
O=C(O)C1CC1c1ccc(O[C@@H]2CCc3c(OC(F)(F)F)cccc32)cc1F (stereo in doubt) [Example 6, 2-[4-((R)-4-Trifluoromethoxy-indan-1-yloxy)-2-fluorophenyl]-trans-cyclopropanecarboxylic acid]	98 nM
Cc1ccc2c(cnn2C)c1-c1ccc(F)c2c1CC[C@H]2Oc1ccc([C@H]2C[C@@H]2C(=O)O)cc1 [Example 58, (1S,2S)-2-(4-((1R)-4-(1,5-dimethyl-1H-indazol-4-yl)-7-fluoro-2,3-dihydro-1H-inden-1-yloxy)phenyl)cyclopropanecarb oxylic acid]	4 nM
Cc1cc(OCCCS(C)(=O)=O)cc(C)c1-c1ccc(F)c2c1CC[C@H]2Oc1ccc(C2CC2C(=O)O)cc1 (stereo partly shown) [Example 13]	13 nM
Cc1cc(OCC2CN(S(C)(=O)=O)C2)cc(C)c1-c1ccc(F)c2c1CC[C@H]2Oc1ccc([C@H]2C[C@@H]2C(=O)O)cc1 [Example 20, (1S,2S)-2-(4-{(R)-7-Fluoro-4-[4-(1-methanesulfonyl-azetidin-3-ylmethoxy)-2,6-dimethyl-phenyl]-indan-1-yloxy}-phenyl)-cyclopropanecarboxylic acid]	10 nM
Cc1cc(-c2nc(C)n(CC(C)(C)O)n2)cc(C)c1-c1ccc(F)c2c1CC[C@H]2Oc1ccc([C@H]2C[C@@H]2C(=O)O)cc1 [Example 41, (1S,2S)-2-[4-((R)-7-Fluoro-4-{4-[1-(2-hydroxy-2-methyl-propyl)-5-methyl-1H-[1,2,4]triazol-3-yl]-2,6-dimethyl-phenyl}-indan-1-yloxy)-phenyl]-cyclopropanecarboxylic acid]	2 nM
Cc1cc(OCC(C)(C)O)cc(C)c1-c1ccc(F)c2c1CC[C@H]2Oc1ccc([C@H]2C[C@@H]2C(=O)O)cc1 [Example 27, (1S,2S)-2-(4-{(R)-7-Fluoro-4-[4-(2-hydroxy-2-methyl-propoxy)-2,6-dimethyl-phenyl]-indan-1-yloxy}-phenyl)-cyclopropanecarboxylic acid]	8 nM
COc1cc(O[C@@H]2CCc3c(OC(F)(F)F)cccc32)ccc1[C@@H]1C[C@H]1C(=O)O [Example 8]	407 nM
Cn1ncc2cccc(-c3ccc(F)c4c3CC[C@H]4Oc3ccc([C@H]4C[C@@H]4C(=O)O)cc3)c21 [Example 40]	2 nM
Cc1cc(OC2CCOCC2)cc(C)c1-c1c(C#N)ccc2c1CC[C@H]2Oc1ccc([C@H]2C[C@@H]2C(=O)O)cc1 [Example 38, (1S,2S)-2-(4-{(R)-5-Cyano-4-[2,6-dimethyl-4-(tetrahydro-pyran-4-yloxy)-phenyl]-indan-1-yloxy}-phenyl)-cyclopropane-carboxylic acid]	40 nM
Cc1cc(OCC2CCS(=O)(=O)CC2)cc(C)c1-c1ccc(F)c2c1CC[C@H]2Oc1ccc([C@H]2C[C@@H]2C(=O)O)cc1 [Example 21]	7 nM
Cc1cc(-c2nnn(CC(C)(C)O)n2)cc(C)c1-c1ccc(F)c2c1CC[C@H]2Oc1ccc([C@H]2C[C@@H]2C(=O)O)cc1 [Example 43, (1S,2S)-2-[4-((R)-7-Fluoro-4-{4-[2-(2-hydroxy-2-methyl-propyl)-2H-tetrazol-5-yl]-2,6-dimethyl-phenyl}-indan-1-yloxy)-phenyl]-cyclopropanecarboxylic acid]	3 nM
Cc1cc(-c2nnn(C)n2)cc(C)c1-c1ccc(F)c2c1CC[C@H]2Oc1ccc([C@H]2C[C@@H]2C(=O)O)cc1 [Example 45]	2 nM
O=C(O)[C@H]1C[C@@H]1c1ccc(O[C@@H]2CCc3c(-c4ccncc4C(F)(F)F)ccc(F)c32)cc1 [Example 52, (1S,2S)-2-(4-((1R)-7-fluoro-4-(3-(trifluoromethyl)pyridin-4-yl)-2,3-dihydro-1H-inden-1-yloxy)phenyl)cyclopropanecarb oxylic acid]	38 nM
Cc1c(C#N)cccc1-c1ccc(F)c2c1CC[C@H]2Oc1ccc([C@H]2C[C@@H]2C(=O)O)cc1 [Example 54]	5 nM
Cc1cc(OCCCS(C)(=O)=O)cc(C)c1-c1ccc(F)c2c1CC[C@H]2Oc1ccc([C@@H]2C[C@H]2C(=O)O)cc1 [Example 12, (1R,2R)-2-(4-{(R)-7-Fluoro-4-[4-(3-methanesulfonyl-propoxy)-2,6-dimethyl-phenyl]-indan-1-yloxy}-phenyl)-cyclopropanecarboxylic acid]	328 nM
Cc1cc(OCC(C)(C)S(C)(=O)=O)cc(C)c1-c1ccc(F)c2c1CC[C@H]2Oc1ccc([C@H]2C[C@@H]2C(=O)O)cc1 [Example 14, (1S,2S)-2-(4-{(R)-7-Fluoro-4-[4-(2-methanesulfonyl-2-methyl-propoxy)-2,6-dimethyl-phenyl]-indan-1-yloxy}-phenyl)-cyclopropanecarboxylic acid]	8 nM
Cc1cc(O[C@@H]2CCN(S(C)(=O)=O)C2)cc(C)c1-c1c(C#N)ccc2c1CC[C@H]2Oc1ccc([C@H]2C[C@@H]2C(=O)O)cc1 [Example 37]	32 nM

Source: patent US8633182B2, “Indanyloxyphenylcyclopropanecarboxylic acids” (Boehringer Ingelheim International GmbH, priority 2012, dated 2014)
